Columns and labels:
Assay in all cases: relative viability (nuclei count vs DMSO), 5 days (fraction); higher = more cells survive
[1] = compound: CCC1=CN=CN=C1N2CCN(CC2)CC3=NC4=C(N3)C=C(C=C4)C(F)(F)F + Cc1cc(Nc2cc(N3CCN(C)CC3)nc(Sc3ccc(NC(=O)C4CC4)cc3)n2)n[nH]1 [Tozasertib] (partner 0.1 µM)
Outline: (§1)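 Values are medians from duplicate plates. Each reflects relative viability, defined as the nuclei count of treated wells over that of vehicle wells. Lung cancer cell lines in 1536-well plates were pin-tool dosed one day after seeding with one drug alone or with a fixed anchor-drug dose plus five library-drug doses (not always all listed) in √10 steps, then fixed, stained and imaged at 4× after 5 days.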

[2] = compound: CCC1=CN=CN=C1N2CCN(CC2)CC3=NC4=C(N3)C=C(C=C4)C(F)(F)F + O=C(c1cc(Cc2n[nH]c(=O)c3ccccc23)ccc1F)N1CCN(C(=O)C2CC2)CC1 [Olaparib] (partner 8 µM)
Outline: as §1

[3] = compound: CCn1c(-c2nonc2N)nc2cnc(Oc3cccc(NC(=O)c4ccc(OCCN5CCOCC5)cc4)c3)cc21 + C[C@]1(O)C[C@@H](c2nc(-c3ccc4ccc(-c5ccccc5)nc4c3)c3c(N)nccn32)C1 [Linsitinib] (partner 1 µM)
Outline: as §1

[4] = compound: CCn1c(-c2nonc2N)nc2cnc(Oc3cccc(NC(=O)c4ccc(OCCN5CCOCC5)cc4)c3)cc21 + N=C(N)NC(=N)NCCc1ccccc1 [Phenformin] (partner 250 µM)
Outline: as §1

| Cell Line | relative viability ([1]; first compound 0.04 µM) | relative viability ([1]; first compound 0.1265 µM) | relative viability ([1]; first compound 0.4 µM) | relative viability ([1]; first compound 1.265 µM) | relative viability ([1]; first compound 4 µM) | relative viability ([2]; first compound 0.04 µM) | relative viability ([2]; first compound 0.1265 µM) | relative viability ([2]; first compound 0.4 µM) | relative viability ([2]; first compound 1.265 µM) | relative viability ([2]; first compound 4 µM) | relative viability ([3]; first compound 0.04 µM) | relative viability ([3]; first compound 0.1265 µM) | relative viability ([3]; first compound 1.265 µM) | relative viability ([3]; first compound 4 µM) | relative viability ([4]; first compound 0.04 µM) | relative viability ([4]; first compound 0.1265 µM) | relative viability ([4]; first compound 0.4 µM) | relative viability ([4]; first compound 1.265 µM) | relative viability ([4]; first compound 4 µM) | relative viability ([3]; first compound 0.4 µM) |
| --- | --- | --- | --- | --- | --- | --- | --- | --- | --- | --- | --- | --- | --- | --- | --- | --- | --- | --- | --- | --- |
| NCI-H1993 | 0.627 | 0.509 | 0.597 | 0.566 | 0.493 | 0.95 | 1.03 | 1.09 | 0.895 | 0.974 | 0.701 | 0.762 | 0.699 | 0.702 | 0.66 | 0.562 | 0.546 | 0.565 | 0.508 | – |
| NCI-H3122 | 0.423 | 0.405 | 0.384 | 0.345 | 0.439 | 0.663 | 0.55 | 0.551 | 0.54 | 0.56 | 1.04 | 0.985 | 1 | 0.934 | 0.369 | 0.328 | 0.317 | 0.256 | 0.23 | 0.991 |
| NCI-H2228 | 0.252 | 0.249 | 0.22 | 0.335 | 0.253 | – | 0.608 | 0.551 | 0.658 | 0.488 | 1.3 | 0.912 | 0.992 | 0.51 | 0.41 | 0.31 | 0.329 | 0.318 | 0.331 | 0.906 |
| NCI-H1944 | 0.269 | 0.249 | 0.212 | 0.218 | 0.223 | 0.622 | 0.395 | 0.378 | 0.344 | 0.361 | 1.31 | 1.18 | 1.14 | 1.16 | 0.192 | 0.161 | 0.109 | 0.111 | 0.102 | – |
| NCI-H358 | 0.0937 | 0.0935 | 0.101 | 0.112 | 0.109 | 0.659 | 0.607 | 0.542 | 0.62 | 0.548 | 1.12 | 0.615 | 0.571 | 0.434 | 0.352 | 0.295 | 0.224 | 0.27 | 0.198 | 0.574 |
| NCI-H1734 | 0.267 | 0.248 | 0.253 | 0.283 | 0.261 | 0.63 | 0.609 | 0.587 | 0.584 | 0.557 | 1.06 | 0.796 | 0.648 | 0.485 | 0.427 | 0.388 | 0.209 | 0.284 | 0.201 | 0.807 |
| A-427 | 0.209 | 0.218 | 0.21 | 0.174 | 0.177 | 0.683 | 0.72 | 0.636 | 0.698 | 0.595 | 1.2 | 1.16 | 1.06 | 1.06 | 0.471 | 0.377 | 0.227 | 0.167 | 0.114 | 1.15 |
| SK-LU-1 | 0.326 | 0.334 | 0.362 | 0.335 | 0.274 | 0.452 | 0.438 | 0.47 | 0.443 | 0.442 | 1.17 | 0.861 | 0.439 | 0.423 | 0.488 | 0.409 | 0.333 | 0.251 | 0.238 | 0.906 |
| NCI-H838 | 0.278 | 0.253 | 0.306 | 0.24 | 0.268 | 0.816 | 0.752 | 0.737 | 0.712 | 0.74 | 0.863 | 0.49 | 0.392 | 0.289 | 0.501 | 0.285 | 0.201 | 0.227 | 0.222 | 0.439 |
| LCLC-97TM1 | 0.209 | 0.196 | 0.234 | 0.207 | 0.205 | 0.425 | 0.418 | 0.335 | 0.329 | 0.278 | 0.221 | 0.204 | 0.206 | 0.181 | 0.485 | 0.431 | 0.23 | 0.463 | 0.361 | – |
| BEN | 0.462 | 0.528 | 0.559 | 0.433 | 0.477 | 1.01 | 1.08 | 1.03 | 0.629 | 0.598 | 0.931 | 0.935 | 0.311 | 0.313 | 0.29 | 0.275 | 0.21 | 0.235 | 0.228 | 0.799 |
| NCI-H2023 | 0.33 | 0.383 | 0.343 | 0.297 | 0.325 | 0.53 | 0.48 | 0.493 | 0.418 | 0.46 | 0.802 | 0.694 | 0.566 | 0.482 | 0.538 | 0.381 | 0.328 | 0.223 | 0.186 | 0.71 |
| LC-2-ad | 0.442 | 0.497 | 0.424 | 0.406 | 0.413 | 0.733 | 0.644 | 0.661 | 0.653 | 0.636 | 0.936 | 0.899 | 0.55 | 0.352 | 0.679 | 0.563 | 0.397 | 0.362 | 0.524 | 0.756 |
| ABC-1 | 0.176 | 0.172 | 0.172 | 0.152 | 0.196 | – | – | 0.646 | 0.649 | 0.536 | 1.15 | 0.906 | 0.574 | 0.5 | 0.23 | 0.266 | 0.209 | 0.277 | 0.217 | 0.687 |
| NCI-H650 | 0.78 | 0.76 | 0.765 | 0.616 | 0.753 | 0.386 | 0.373 | 0.393 | 0.331 | 0.347 | 1.01 | 0.667 | 0.304 | 0.426 | 0.485 | 0.381 | 0.258 | 0.246 | 0.292 | 0.521 |
| NCI-H1755 | 0.627 | 0.503 | 0.596 | 0.515 | 0.521 | 0.915 | 0.903 | 0.856 | 0.82 | 0.75 | 1.08 | 1.01 | 0.963 | 0.937 | 0.565 | 0.508 | 0.301 | 0.304 | 0.332 | 0.936 |
